These results are taken from ChEMBL document CHEMBL1130754, “Structure activity relationship study of known inhibitors of the enzyme 5 alpha-reductase (5AR)” (Bioorg Med Chem Lett, 1998).

The target of test [1] is T1, Steroid 5-alpha-reductase (Rattus norvegicus, UniProt P24008+P31214).
T1 sequence (P24008 whole entry): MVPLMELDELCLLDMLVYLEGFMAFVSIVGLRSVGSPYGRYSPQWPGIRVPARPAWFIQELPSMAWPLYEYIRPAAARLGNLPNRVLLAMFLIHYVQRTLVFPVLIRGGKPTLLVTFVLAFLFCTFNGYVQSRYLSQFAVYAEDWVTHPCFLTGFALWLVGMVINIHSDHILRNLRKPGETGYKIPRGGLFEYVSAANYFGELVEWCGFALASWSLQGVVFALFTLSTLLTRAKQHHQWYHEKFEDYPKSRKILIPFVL
T1 sequence (P31214 whole entry): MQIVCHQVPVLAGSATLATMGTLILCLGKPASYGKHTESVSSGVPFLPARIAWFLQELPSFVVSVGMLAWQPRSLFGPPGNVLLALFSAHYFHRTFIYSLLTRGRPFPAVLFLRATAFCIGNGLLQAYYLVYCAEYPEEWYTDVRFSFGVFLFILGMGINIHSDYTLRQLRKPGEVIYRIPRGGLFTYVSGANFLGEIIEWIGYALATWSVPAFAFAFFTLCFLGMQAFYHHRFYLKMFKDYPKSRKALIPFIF
Description: Compound was tested for the inhibitory activity against Steroid 5-alpha-reductase in rat.

For test [2], the target named is T2, 3-oxo-5-alpha-steroid 4-dehydrogenase 1 (Rattus norvegicus, UniProt P24008).
T2 sequence (P24008 whole entry): T1 sequence (P24008 whole entry)
In words: Compound was tested for the inhibitory activity against Steroid 5-alpha-reductase type 1 in rat.

As a reminder, the IC50 is the midpoint of a concentration-inhibition curve. Read a high IC50 as lower potency.

As to `C[C@]12CCC(=O)C=C1CC[C@@H]1[C@@H]2CC[C@]2(C)C(c3cccnc3)=CC[C@@H]12`, the IC50 in test [1] came to 10000 nM.

`CCCCCCCCNC(=O)[C@H]1CCC2C3CCC4NC(=O)CC[C@]4(C)C3CC[C@@]21C` (some centres undefined) registered an IC50 in test [1] of 0.13 nM.

Turning to `CC(C)(C)NC(=O)[C@H]1CCC2C3CCC4NC(=O)CC[C@]4(C)C3CC[C@@]21C` (some centres undefined), the IC50 in test [1] was 6.3 nM.

Take `CC(C)(C)NC(=O)[C@H]1CC[C@H]2[C@@H]3CC[C@H]4NC(=O)C=C[C@]4(C)[C@H]3CC[C@]12C` [FINASTERIDE]: in test [2], the IC50 was 4.2 nM.
